Data as given in PMC6201930 (PLoS ONE, 2018).
Where “and” joins values, the source holds several entries; their conditions need not be identical. Equal entries are not always repeated.

Tests used:
[1] = Pharmacokinetics of aminoglycosides in the rat; conditions: sc, 10 mg/kg
Method: Test compounds were dissolved in PBS at 1 mg/mL and administered subcutaneously in a volume of 10 mL/kg to deliver a dose of 10 mg/kg. […] At 24 hours, the rat was euthanized and in addition to blood, quadriceps and kidney tissues were collected for subsequent analysis.
Blood was collected into tubes containing dipotassium ethylenediaminetetraacetic acid (K2 EDTA) as the anticoagulant and rotated at room temperature until the blood was centrifuged and the plasma recovered for subsequent analysis by liquid chromatography with tandem mass spectroscopy (LC-MS/MS). Noncompartmental toxicokinetic parameters were determined using Phoenix WinNonLin version 6.1 (Pharsight Corporation, Carey NC).
The concentrations of test compound in plasma, kidney and muscle were quantified by liquid chromatography-tandem mass spectrometry (LC-MS/MS). Briefly, the plasma and tissue homogenate samples were treated with acetonitrile-methanol mixture containing an internal standard that is a close analog of the test compounds. The treated plasma and […] homogenate samples were centrifuged and the supernatant was collected and analyzed using electro-spray LC-MS/MS.

[2] = test system: tGFP-CFTR542X-HA-HIS construct (codon 542 UGA) in 293H cells; experiment: tGFP-542X readthrough assay (HA-HIS MSD immunoassay); format: cell-based, human
in vitro [3] = conditions: mouse
From the text: (§1) When considering compounds for potential readthrough therapy it is important to monitor cellular and animal safety. In order to determine the most promising compounds to further evaluate in in vivo safety, we measured cytotoxicity in two different cell types. We used activated human peripheral blood mononuclear cells (PBMCs) (Table 2 and Fig 2D and 2E). PBMCs are a primary cell that when activated with phytohaemagglutinin (PHA) expand quickly and are commonly used as an in vitro surrogate for rapidly growing cells in the human body to evaluate cytotoxicity. Prior to advancing compounds into human studies, safety evaluation in rodents is performed. As an in vitro surrogate for rodent toxicity, we used primary mouse myoblasts.

[4] = test system: p53 R213* UGA premature termination codon in HDQ-P1 mammary carcinoma cells; experiment: HDQ-p53UGA213 readthrough assay (full-length p53, MSD immunoassay); format: cell-based, human; conditions: for HDQ-p53UGA213 (Maxfold): maximum readthrough activity above background
Method: We utilized HDQ-P1 mammary carcinoma cells, which are homozygous for R213*, a UGA premature termination codon in the gene for the tumor suppressor protein p53 [30]. […] Western blot hybridization and Meso Scale Discovery (MSD) immunoassay detection of p53 were done as previously described. […] Cells (45K per well) were grown in 96-well plates and treated with compounds for 24 hours. […] Cells were lysed with 60 μl per well of lysis buffer (20 mM Tris-HCL, pH 7.5, 1 mM EGTA, 1 mM EDTA,150 mM Nacl, 0.5% Triton X100) for one hour at room temperature and 30 μl of lysate per well were transferred to the coated plate and incubated overnight at 4 °C. […] Plates were then washed three times with PBS-T and 30 μl of 0.25 μ/ml goat anti-rabbit IgG-Sulfo-tag antibody (MSD) in TBS-C was added and incubated for 1 hour at room temperature. Plates were then washed three times with PBS-T and 150 μl read buffer (MSD) was added. Plates were read immediately in a SECTOR S 600 (MSD).

[5] = test system: activated human peripheral blood mononuclear cells (PBMCs); experiment: Cytotoxicity in stimulated PBMCs (CellTitre-Glo ATP); conditions: for CC50: read-out: Stimulated PBMC CC50, individual determinations (S1 File)
From the text: as §1
(§2) Frozen human Peripheral Blood Mononuclear Cells (PBMCs) were obtained from […] (Alameda, CA, Cat# PB003F) from a single donor. […] Plates were incubated at 37°C with 5% CO2 for 4 hours prior to compound treatment. Compounds were serially diluted and added to the plates. Plates were incubated at 37°C, 5% CO2 incubator, for 72 hours prior to determinations of ATP levels. Cell viability was determined using a chemiluminescent assay to monitor adenosine triphosphate (ATP) levels in live cells (CellTitre-Glo; CTG; Promega, Cat#G7571). Methods were performed per the manufacturer’s instructions.

in vitro [6] = conditions: human
From the text: as §1, §2

[7] = AVERAGE (S1 File), unit not given for EC5X
[8] = individual experiments (S1 File)
[9] = individual experiments (S1 File), unit not printed for EC5X (EC2X of the sheet in uM)
[10] = maximum readthrough above background, average ± SD
[11] = concentration required to double the level of full-length p53 protein, average ± SD, at least three experiments, highest concentration 300 μM
[12] = Stimulated PBMC (CC50), PHA/IL-2 stimulated, 72 hours, average ± SD
[13] = Stimulated PBMC CC50, AVERAGE (S1 File)

Work on `CN[C@@H]1[C@@H](O)[C@@H](O[C@@H]2[C@@H](O)[C@H](O[C@H]3O[C@H]([C@@H](C)O)[C@@H](O)[C@H](O)[C@H]3N)[C@@H](N)C[C@H]2N)OC[C@]1(C)O` [G418, reference compound] yielded an AUC ([1]; in vivo) of 15000 ng·h/mL, an AUC(0-t) ([1]; in vivo) of 15000 ng·h/mL and a Cmax ([1]; in vivo) of 7400 ng/mL. For the same compound, the Tmax ([1]; in vivo) was 0.33 h, the half-life ([1]; in vivo) was 1.5 h and the concentration at 24 h ([1]; in vivo, Kidney levels, 10 mg/kg subcutaneous, 24 hours post-dose, mean ± SD of three rats) was 12000 ± 3000 ng/g. The concentration at 24 h ([1]; in vivo, levels in the quadriceps, 10 mg/kg subcutaneous, 24 hours after dosing) was about 40 ng/g, the concentration at 24 h ([1]; in vivo, plasma levels, 10 mg/kg subcutaneous, 24 hours after dosing, at or below lower limit of quantification) was at most 1 ng/g and the “tGFP-542X EC2X” value ([2]; 293H cells, 24 hours, average ± SD) was 9 ± 4 µM. The “tGFP-542X EC2X” value ([2]; AVERAGE (S1 File)) was 9.0 µM, the “tGFP-542X Maxfold” value ([2]; AVERAGE (S1 File)) was 318.3 and the “tGFP-542X EC5X” value [2, 7] was 24.8. The “tGFP-542X EC2X” value [2, 8] was 8 µM and 15 µM and 5 µM, the “tGFP-542X Maxfold” value [2, 8] was 373 and 420 and 226 and 255 and the “tGFP-542X EC5X” value [2, 9] was 22 and 18 and 33 and 27. The “tGFP-542X Maxfold” value [2, 10] was 318 ± 93 fold, the CC50 (in vitro [3]; Myoblast (CC50), average ± SD) was 166 ± 100 µM and the CC50 (in vitro [3]; Myoblast CC50, AVERAGE (S1 File)) was 166 µM. The “HDQ-p53UGA213 EC2X” value ([4]; AVERAGE (S1 File)) was 9.3 µM, the HDQ-p53UGA213 max ([4]; AVERAGE (S1 File)) was 43.8 and the “HDQ-p53UGA213 EC2X” value [4, 11] was 9 ± 5 µM. The “HDQ-p53UGA213 (Maxfold)” value ([4]; average ± SD) was 44 ± 19 fold, the CC50 [5] was 270 µM and 289 µM and 294 µM and 295 µM and 372 µM and 440 µM and 458 µM and 473 µM and 841 µM and 853 µM and 914 µM and 1060 µM and the CC50 (in vitro [6]; [12]) was 546 ± 286 µM. It also gave a CC50 (in vitro [6]; [13]) of 546 µM.

For `CN[C@@H]1[C@@H](O)[C@@H](O[C@@H]2[C@@H](O)[C@H](O[C@H]3O[C@H](CO)[C@@H](O)[C@H](O)[C@H]3N)[C@@H](N)C[C@H]2N)OC[C@]1(C)O` (stereo in doubt) [Gentamicin X2, gentamicin X2], the concentration at 24 h ([1]; kidney) was 7000 ± 1000 ng/g, the AUC ([1]; plasma) was 13000 ng·h/mL and the AUC(0-t) ([1]; plasma) was 13000 ng·h/mL. For the same compound, the Cmax ([1]; plasma) was 5600 ng/mL, the Tmax ([1]; plasma) was 0.5 h and the concentration at 24 h ([1]; plasma) was at most 1 ng/g. For the same compound, the half-life ([1]; plasma) was 2.6 h, the concentration at 24 h ([1]; quadriceps) was about 40 ng/g and the “tGFP-542X EC2X” value ([2]; AVERAGE (S1 File)) was 18.6 µM. The “tGFP-542X Maxfold” value ([2]; AVERAGE (S1 File)) was 135.0, the “tGFP-542X EC5X” value [2, 7] was 101.5 and the “tGFP-542X EC2X” value [2, 8] was 18.5 µM and 10.25 µM and 10.65 µM and 11.55 µM and 13.08 µM and 5.70 µM and 9.22 µM and 17.7 µM and 40.0 µM and 49.3 µM. For the same compound, the “tGFP-542X Maxfold” value [2, 8] was 235 and 85, the “tGFP-542X EC5X” value [2, 9] was 52 and 120 and 133 and the “tGFP-542X Maxfold” value [2, 10] was 135 ± 87 fold. For the same compound, the CC50 (in vitro [3]; primary mouse myoblasts, Myoblast (CC50), average ± SD) was 834 ± 623 µM, the CC50 (in vitro [3]; primary mouse myoblasts, Myoblast CC50, AVERAGE (S1 File)) was 834 µM and the “HDQ-p53UGA213 EC2X” value ([4]; AVERAGE (S1 File)) was 18.6 µM. For the same compound, the HDQ-p53UGA213 max ([4]; AVERAGE (S1 File)) was 39.1, the “HDQ-p53UGA213 EC2X” value [4, 11] was 19 ± 6 µM and the “HDQ-p53UGA213 EC2X” value [4, 8] was 19.47 µM and 16.13 µM and 19.14 µM and 12.27 µM and 19.04 µM and 21.26 µM and 22.25 µM and 17.98 µM and 6.97 µM and 32.75 µM and 17.45 µM and 17.38 µM and 19.08 µM. The HDQ-p53UGA213 max ([4]; individual experiments (S1 File), max fold) was 23.4 and 60.4 and 40.4 and 95 and 8.4 and 8 and 12.7 and 10.6 and 84.8 and 5.1 and 37.4 and 60.1 and 62.2, the “HDQ-p53UGA213 (Maxfold)” value ([4]; average ± SD) was 39 ± 31 fold and the “safety window (average CC50 / average EC2X)” value ([5]; PBMCs, compared with NB84, NB124 or G418, 95% confidence limits) was “statistically better safety window”. The CC50 [5] was 2590 µM and 2630 µM and 2940 µM, the CC50 at 72 h (in vitro [6]; [12]) was 2970 ± 533 µM and the CC50 at 72 h (in vitro [6]; [13]) was 2970 µM. It also gave a CC50 at 72 h (in vitro [6]; Stimulated PBMC CC50, individual determinations (S1 File)) of 3740 µM.
